One molecule from US20230219957A1, “SMALL MOLECULE CB002-ANALOGES RESTORE THE P53 PATHWAY AND TARGET S-PHASE CHECKPOINT” (Brown University, priority 2020, published 2023) can be followed below.

This assay has as its system SW480 tumor cells. As to the kind of experiment: Apoptosis markers (cleaved PARP immunoblot, Cyt-C immunofluorescence). The assay is classed as cell-based, human. As for the experimental part:
Knockdown expression of p73, DR5, ATG5, or FADD using siRNA. A total of 1×10^5 cells/well were plated per well in a 12-well plate in medium with 10% FBS without antibiotic. Forward transfection of p73 siRNA (s14319, Ambion®, Ambion Inc., Austin, Tex., USA), DR5 (sc-40237, Santa Cruz Biotechnology), atg5 (137766, Ambion®, Ambion Inc., Austin, Tex., USA), or FADD (S16706, Ambion®, Ambion Inc., Austin, Tex., USA) was performed using the Lipofectamine® RNAiMAX Transfection Reagent (Life Technologies) and incubated for forty-eight hours before treatment, e.g., before drug treatments.
Immunoblotting (additional method). After treatment, floating cells were collected, and adherent cells were trypsinized, washed with phosphate-buffered saline, and lysed with RIPA buffer (Sigma-Aldrich, St. Louis, Mo., USA) for thirty minutes to one hour at 4° C. Protein lysates were pelleted. The supernatant was collected. Total protein per sample was determined using a Pierce™ BCA Protein Assay Kit (Thermo Fisher Scientific, Waltham, Mass., USA). Proteins were denatured using 1× NuPAGE® LDS sample buffer (Thermo Fisher Scientific, Waltham, Mass., USA) and reduced with 2-mercaptoethanol (Sigma-Aldrich, St. Louis, Mo., USA). Protein lysates were boiled for fifteen min at 95° C. After protein normalization, samples were loaded into NuPAGE™ Novex™ 4-12% Bis-Tris Protein Gels (Thermo Fisher Scientific, Waltham, Mass., USA). Gel electrophoresis was performed with NuPAGE™ MES SDS Running Buffer. […] Signal was detected using a chemiluminescent detection kit, followed by autoradiography. […]
Immunohistochemistry. […] Organoid viability imaging was determined by CellTrace™ Calcein Green (#C34852, Thermo Fisher Scientific, Waltham, Mass., USA), Ethidium Homodimer-1 (#E1169, Thermo Fisher Scientific, Waltham, Mass., USA), Ki67 incubated at 37° C. for one hour then washed with phosphate-buffered saline and imaged. […]

Regarding `Cn1c(=O)c2[nH]c(Nc3cccc(C(F)(F)F)c3)nc2n(C)c1=O` [CB002-analog #4], for the setting “SW480”, the cleaved-PARP entry is “increases cleaved-PARP”. Also, the “cytochrome C release from the mitochondria to the cytosol” value (SW480, forty-eight hours) was “cytochrome C release from the mitochondria to the cytosol”. In addition, the “PARP cleavage under p73 knockdown” value (SW480, p73 siRNA) is recorded as “PARP cleavage occurred despite effective p73 knockdown”.
